{"source": "patent US11246907B2", "about": "“Immunosuppressive agents and their use in therapy” (Norwegian University of Science and Technology, priority 2013, dated 2022)", "key": {"JJN-3 cells": {"test_system": "JJN-3 cells", "test": "Cell survival (MTT) assay, multiple myeloma cell line JJN-3", "assay_type": "cell-based", "conditions": "6 μM ATX-101 with 5 μM LY294002 or 10 μM SB20358", "method": "Phosphorylated kinase levels were corrected for loading differences (β-tubulin) and normalized to untreated control cells. Data is from three independent experiments (mean±SD).\n(§1) The multiple myeloma cell lines JJN-3 (gift from J. Ball, University of Birmingham, United Kingdom) were grown in RPMI 1640 (Sigma-Aldrich, Schnelldorf, Germany) supplemented with 10% FCS, 2 mM glutamine (Sigma-Aldrich), 2.5 μg/ml amphotericin B (Sigma-Aldrich) and 100 μg/ml gentamicin (Invitrogen, Carlsbad, Calif., USA). HaCaT cells (spontaneously transformed keratinocytes) were cultured in DMEM (Sigma-Aldrich) containing FCS, glutamine, amphotericin B, and gentamicin. All cells were cultured at 37° C. in a humidified atmosphere of 5% CO2.\n(§2) Cells were seeded into 96-well plates and ATX-101, kinase inhibitors (SB203580 and BIRB0796), and polyIC were added alone or in combination at the indicated concentrations. Cells were exposed continuously and harvested every day for the next four days using the MTT (3-(4.5-Dimethylthiazol-2-yl)-2.5 diphenyl-tetrazolium bromide) assay (Gilljam et al., 2009, supra). The average from at least 4 wells was used to calculate cell survival."}, "RPMI-8226": {"test_system": "RPMI-8226", "test": "Cell growth/cytotoxicity, multiple myeloma cell line RPMI-8226", "assay_type": "cell-based", "method": "as §2\nTo further elucidate whether ATX-101 directly affected the MAPK and PI3K pathways, we analyzed the phosphorylation levels of downstream kinases in JJN-3 cells at different time points after ATX-101 addition. The phosphorylation of Akt and the p70 S6 kinase (downstream of mTOR) were both decreased by ATX-101 treatment."}, "[1]": {"test_system": "Akt Ser473 phosphorylation", "test": "Western blot of Akt Ser473 phosphorylation in JJN-3 cells", "assay_type": "cell-based", "conditions": "6 μM ATX-101, 4, 8, 24 h"}, "[2]": {"test_system": "p70 S6 kinase Thr389 phosphorylation", "test": "Western blot of p70 S6 kinase Thr389 phosphorylation in JJN-3 cells", "assay_type": "cell-based", "conditions": "6 μM ATX-101, 4, 8, 24 h"}, "[3]": {"test_system": "Akt Ser473 phosphorylation", "test": "Western blot of Akt Ser473 phosphorylation in peripheral blood monocytes", "assay_type": "cell-based, human", "conditions": "4 μM ATX-101, 4 h", "method": "Data is from one representative donor out of three; and (B-E) show multiplex analysis of cytokine levels produced by peripheral blood monocytes stimulated with 10 ng/ml LPS (B and D, same donor) and 40 μg/ml polyIC (C and E, same donor) after 4 h. (B and C) Stimulated-monocytes were treated with 4 μM ATX-101, 10 μM SB203580 (p38 MAPK inhibitor), and combination of ATX-101 and SB203580. (D and E) Stimulated-monocytes were treated with 4 μM ATX-101, 5 and 10 μM LY294002 (PI3K class I inhibitor), and combination of ATX-101 and LY294002. Measured cytokine levels were normalized to cytokine levels from monocytes stimulated with TLR ligand alone. A two fold or higher increase in cytokine level after TLR stimulation was defined as cytokine induction. # Value is too low to be visible in the column diagram; ? cytokine measurement was out of range. Data is from representative experiments out of two.\n(§3) Mononucleated cells were seeded and stimulated as described above. JJN-3 cells were treated with ATX-101 (6 μM) for 4 h. HaCaT cells were treated with ATX-101 (12 μM), polylC (2 μg/ml), and LPS (100 ng/ml) for 4 h. […] The proteins were visualized with the Odyssey infrared imaging system (LI-COR) and quantified using Odyssey Image Studio V2. […]"}, "PACT": {"test_system": "PACT", "test": "Western blot of PACT protein levels in HaCaT cells", "assay_type": "cell-based, human", "conditions": "12 μM ATX-101 + 2 μg/ml polyIC, 4 h", "method": "Protein levels were corrected for loading differences (β-tubulin) and normalized to untreated control cells. […] Bar, 5 μm.\nas §1, §3"}, "monocytes": {"test_system": "monocytes", "test": "Annexin staining / flow cytometry of monocytes (apoptosis)", "assay_type": "cell-based, human", "conditions": "for Percentage of annexin positive cells: 4 hours, monocytes", "method": "Annexin staining was used to determine cell viability and cells were counted using flow cytometry.\nPeripheral blood […] were isolated from A+ buffy coats (Blood Bank, St. Olav's University Hospital) by density gradient centrifugation (Lymphoprep; Axis-Shield PoC, Oslo, Norway). The adherent cell fraction after 90 minute incubation, termed monocytes, were washed twice with HANKS and maintained in RPMI 1640 supplemented with 2 mM glutamine, […] gentamicin and 25% heat-inactivated HS over-night. Cells were cultured at 37° C. in a humidified atmosphere of 5% CO2 over-night. […] An R11 peptide and no peptide treatment were used as controls. After 4 hours, the cells were washed once in PBS, and re-suspended in buffer as recommended by the manufacturer of the Annexin V-Pacific Blue kit (Invitrogen). Cells were identified monocytes according to size (FSC) and granularity (SSC)."}, "normal cells": {"test_system": "normal cells", "conditions": "4 μM dose; cited from earlier work"}}, "note": "Ends that are not written are not given here."}
{"substance": "Ac-MDRWLVKWKKKRKIRRRRRRRRRRR [ATX-101]", "values": [{"measurement": "growth-inhibitory effect of kinase inhibitors in combination with ATX-101 (cell growth, MTT)", "setting": "JJN-3 cells", "result": "increased the growth-inhibitory effect of p38 MAPK and class I PI3K inhibitors"}, {"measurement": "cytotoxic effects of melphalan in combination with kinase inhibitors and ATX-101", "setting": "RPMI-8226", "result": "enhanced the cytotoxic effects of melphalan"}, {"measurement": "growth-inhibitory effects of ERK5 and MEK1 inhibitors in combination with ATX-101", "setting": "RPMI-8226", "result": "increased the growth-inhibitory effects of ERK5 and MAPK kinase 1 (MEK1) inhibitors"}, {"measurement": "phosphorylation of Akt", "setting": "[1]", "result": "decreased"}, {"measurement": "phosphorylation of p70 S6 kinase", "setting": "[2]", "result": "decreased"}, {"measurement": "LPS- and polyIC-induced and basal Akt phosphorylation", "setting": "[3]", "result": "reduced"}, {"measurement": "PACT protein level, polyIC-stimulated HaCaT cells", "setting": "PACT", "result": "further reduced the protein level of PACT"}, {"measurement": "Percentage of annexin positive cells", "setting": "monocytes; 5μM peptide treatment", "result": 72, "unit": "%"}, {"measurement": "Percentage of annexin positive cells", "setting": "monocytes; 10 μM peptide treatment", "result": 79, "unit": "%"}, {"measurement": "induction of apoptosis in monocytes", "setting": "monocytes; at the concentration used for cytokine secretion (4 μM)", "result": "did not induce apoptosis"}, {"measurement": "toxicity on normal cells in BMCS assays", "setting": "normal cells", "result": "low toxicity"}]}
